Laboratory results: the NIST ThermoML archive (doi:10.1016/j.tca.2016.06.014)
Where “and” joins values, the source holds several entries; their conditions need not be identical. Identical values can stand only once.

Columns and labels:
[1] = Molar enthalpy of transition or fusion; conditions: DSC
[2] = for vapor or sublimation pressure: Transpiration method; for Normal melting temperature: DTA; for Triple point temperature: DSC

ClC12CC3CC(CC(C3)C1)C2 [1-chlorotricyclo[3.3.1.1(3,7)]decane]
Crystal
Conditions	Molar enthalpy of transition or fusion [kcal/mol]	Normal melting temperature [°C]
[1]	1.24	–
[2]	–	165.8

[2], Crystal
Conditions	vapor or sublimation pressure
298.5 K	0.01172 kPa
301 K	0.01402 kPa
303.2 K	0.01766 kPa
303.4 K	0.01712 kPa
306.3 K	0.02255 kPa
308.3 K	0.02567 kPa
308.4 K	0.02653 kPa
311.4 K	0.03389 kPa
313.3 K	0.0365 kPa
316.2 K	0.04719 kPa
318.2 K	0.05137 kPa and 0.05598 kPa
323.2 K	0.07923 kPa
323.3 K	0.0762 kPa
326.2 K	0.09623 kPa
328.2 K	0.1033 kPa and 0.11 kPa
330.7 K	0.1198 kPa
333.2 K	0.1492 kPa
333.4 K	0.1437 kPa

BrC12CC3CC(CC(C3)C1)C2 [1-bromotricyclo[3.3.1.1(3,7)]decane]
Conditions	Molar enthalpy of transition or fusion, [1] [kcal/mol]	Triple point temperature, [2] [K]
Crystal 1	1.15	390.9
Crystal 2	1.77	311.6

vapor or sublimation pressure [kPa], [2]
Conditions	298.2 K	303.2 K	313.2 K	317.3 K	320.2 K	323.2 K	325.7 K	328.2 K	333.1 K	337.1 K
Crystal 1	–	–	0.0166	0.02262	0.02932	0.03504	0.04244	0.04954	0.06913	0.08922
Crystal 2	0.00419	0.00677	–	–	–	–	–	–	–	–

BrC1CCCCC1 [bromocyclohexane]
[2], Liquid
Conditions	vapor or sublimation pressure [kPa]
277.5 K	0.105
280 K	0.1251
281.7 K	0.1422
283.6 K	0.1639
285.5 K	0.1872
287.4 K	0.21
288.8 K	0.2298
289.3 K	0.2446
291.3 K	0.2704
293.2 K	0.3182
295.3 K	0.3668
297.3 K	0.4161

ClC1C2CC3CC(C2)CC1C3 (stereo unspecified) [2-chlorotricyclo[3.3.1.1(3,7)]decane]
Crystal
Conditions	Molar enthalpy of transition or fusion [kcal/mol]	Normal melting temperature [°C]
[1]	1.51	–
[2]	–	195.0

[2], Crystal
Conditions	vapor or sublimation pressure
298.6 K	0.00623 kPa
301.6 K	0.0076 kPa
303.5 K	0.00901 kPa
308.4 K	0.01307 kPa
310.3 K	0.01568 kPa
313.3 K	0.0191 kPa
313.5 K	0.01927 kPa and 0.01999 kPa and 0.01925 kPa
315.3 K	0.0223 kPa
318.2 K	0.02668 kPa
323.5 K	0.03885 kPa
328.2 K	0.05574 kPa
333.2 K	0.07877 kPa
335.7 K	0.08972 kPa
338.2 K	0.106 kPa

BrC1C2CC3CC(C2)CC1C3 (stereo unspecified) [2-bromoadamantane]
Crystal
Conditions	Molar enthalpy of transition or fusion [kcal/mol]	Normal melting temperature [°C]
[1]	1	–
[2]	–	141.6

[2], Crystal
Conditions	vapor or sublimation pressure [kPa]
298.5 K	0.00329
300.9 K	0.0039
303.4 K	0.00475
308.4 K	0.00703
313.3 K	0.01089
318.2 K	0.01506
323.2 K	0.02279
328.2 K	0.03107
333.2 K	0.04422
338.2 K	0.06437
340.1 K	0.07403
343.1 K	0.08635
